Assay: Fluorescence spectrum / intensity of dye solutions, dye complexes and microsphere dispersions (multi-function microplate reader, λex=730 nm)
Type: physicochemical
Settings: aqueous solution
Procedure: 0.5 mg of indocyanine green (Dianogreen Injection) (ICG, Jeil Pharmaceutical Co., Ltd.) as a near-infrared fluorescent dye was dissolved in 1 mL of distilled water, and then diluted with distilled water to prepare an indocyanine green solution at a concentration of 30 μM. For the indocyanine green/human serum albumin (HSA, SK Plasma) complex for comparison of fluorescence signals with the indocyanine green solution, 0.5 mg of indocyanine green powder was dissolved in a mixed solution of 0.214 mL of human serum albumin solution (20% concentration) and 0.786 mL of distilled water, and then diluted with distilled water to prepare an indocyanine green/human serum albumin complex (ICG-HSA) at a concentration of 30 μM. To compare fluorescence spectra, 200 μL of each prepared solution was aliquoted and placed in a 96-well plate, and the fluorescence spectrum (λex=730 nm) was measured using a multi-function microplate reader (SPARK, Tecan Trading AG, Zurich, Switzerland).
(§1) To compare fluorescence signals of the prepared the microspheres and the indocyanine green/human serum albumin complex, the same concentration of indocyanxhine green complex solution and dispersion of microparticles were prepared. […] Using the information on the content of indocyanine green in PLGA microspheres evaluated by the quantification, a dispersion was prepared by adding indocyanine green to 0.3 mL of distilled water so that the concentration was 30 μM. To compare fluorescence spectra, 200 μL of each of the prepared solution and dispersion was aliquoted and placed in a 96-well plate, and the fluorescence spectrum (λex=730 nm) was measured using a multi-function microplate reader (SPARK, Tecan Trading AG, Zurich, Switzerland).
as §1, with “To compare the fluorescence signals” for “To compare fluorescence signals”, “the prepared microspheres and” for “the prepared the microspheres and”, “multi-function microplate reader. Fluorescence images were analyzed using fluorescence imaging equipment (IVIS Lumina XR, Xenogen Corporation-Caliper, CA, USA) after putting 300μl of the same solution into a microtube (λex=780/20 nm, λem=845/40 nm). […]” for “multi-function microplate reader (SPARK, Tecan Trading AG, Zurich, Switzerland).”

| Compound | emission peak |
| --- | --- |
| C[N+]1=C(C=CC2=CC(=CC=C3N(CCCCCC(=O)O)c4ccc(S(=O)(=O)[O-])cc4C3(C)C)CCC2)C(C)(C)c2cc(S(=O)(=O)[O-])ccc21.[K+] [Cy7, sulfo-cyanine7 carboxylic acid] | 780 nm |
| Flamma774 carboxylic acid | 812 nm |
| C[N+]1=C(C=CC2=CC(=CC=C3N(CCCCCC(=O)[O-])c4ccc5c(S(=O)(=O)[O-])cc(S(=O)(=O)[O-])cc5c4C3(C)C)CCC2)C(C)(C)c2c1ccc1c(S(=O)(=O)O)cc(S(=O)(=O)[O-])cc21.[K+].[K+].[K+] [Cy7.5, sulfo-cyanine7.5 carboxylic acid] | 810 nm |
| CC1(C)C(/C=C/C2=C(Oc3ccc(S(=O)(=O)O)cc3)C(=C/C=C3/N(CCCCS(=O)(=O)O)c4ccc(S(=O)(=O)[O-])cc4C3(C)C)/CCC2)=[N+](CCCCCC(=O)O)c2ccc(S(=O)(=O)O)cc21 [IRDye 800CW, IRDye® 800CW carboxylate] | 806 nm |

Source: patent US20240390526A1, “NEAR-INFRARED FLUORESCENT DYE-LOADED POLYMER MICROSPHERES FOR LABELLING LESIONS, AND FORMULATION THEREOF” (National Cancer Center, priority 2022, published 2024)
